Key:
[1] = excess molar enthalpy (molar enthalpy of mixing); xn = mol fraction of the nth substance listed; details: 308.15 K, 101.3 kPa, Liquid
[2] = 308.15 K; 101.33 kPa; Liquid; vibrating tube

OCCO [1,2-ethanediol] + C[S+](C)[O-]
[1]
Details | excess molar enthalpy [kcal/mol]
x1 = 0.0506 | -0.0466
x1 = 0.0963 | -0.0878
x1 = 0.1378 | -0.119
x1 = 0.1757 | -0.147
x1 = 0.2423 | -0.181
x1 = 0.2989 | -0.203
x1 = 0.39 | -0.219
x1 = 0.4601 | -0.218
x1 = 0.5612 | -0.198
x1 = 0.6574 | -0.169
x1 = 0.7189 | -0.147
x1 = 0.7933 | -0.118
x1 = 0.8365 | -0.0991
x1 = 0.8847 | -0.0728
x1 = 0.911 | -0.0595
x1 = 0.9388 | -0.044
x1 = 0.9685 | -0.0237

CC(O)CO (configuration not stated) [1,2-propanediol]
Details | mass density [kg/m3]
[2] | 1026.15

CC(O)CO (configuration not stated) [1,2-propanediol] + C[S+](C)[O-]
[1]
Details | excess molar enthalpy [kcal/mol]
x2 = 0.0389 | -0.0194
x2 = 0.0748 | -0.039
x2 = 0.1082 | -0.0531
x2 = 0.1392 | -0.0645
x2 = 0.1921 | -0.0847
x2 = 0.2444 | -0.0962
x2 = 0.3267 | -0.104
x2 = 0.3928 | -0.101
x2 = 0.4925 | -0.0926
x2 = 0.5929 | -0.0788
x2 = 0.66 | -0.0691
x2 = 0.7444 | -0.0543
x2 = 0.7952 | -0.0446
x2 = 0.8535 | -0.0323
x2 = 0.8859 | -0.0234
x2 = 0.9209 | -0.0155
x2 = 0.9588 | -0.00719

OCCOCCO [diethylene glycol]
Details | mass density [kg/m3]
[2] | 1105.65

OCCOCCO [diethylene glycol] + C[S+](C)[O-]
[1]
Details | excess molar enthalpy [kcal/mol]
x1 = 0.0303 | -0.0251
x1 = 0.0588 | -0.0476
x1 = 0.0857 | -0.0664
x1 = 0.1111 | -0.0834
x1 = 0.1579 | -0.109
x1 = 0.2 | -0.128
x1 = 0.2727 | -0.15
x1 = 0.3332 | -0.159
x1 = 0.4285 | -0.162
x1 = 0.5295 | -0.154
x1 = 0.6 | -0.145
x1 = 0.6923 | -0.124
x1 = 0.75 | -0.112
x1 = 0.8182 | -0.0909
x1 = 0.8571 | -0.0762
x1 = 0.9 | -0.0599
x1 = 0.9474 | -0.0347

C[S+](C)[O-] [dimethyl sulfoxide]
Details | mass density [kg/m3]
[2] | 1085.5

OCCOCCOCCO [triethylene glycol]
Details | mass density [kg/m3]
[2] | 1112.1

OCCOCCOCCO [triethylene glycol] + C[S+](C)[O-]
[1]
Details | excess molar enthalpy [kcal/mol]
x1 = 0.0217 | -0.0287
x1 = 0.0425 | -0.0537
x1 = 0.0625 | -0.0751
x1 = 0.0816 | -0.0944
x1 = 0.1176 | -0.125
x1 = 0.1509 | -0.15
x1 = 0.2104 | -0.181
x1 = 0.2621 | -0.198
x1 = 0.3477 | -0.215
x1 = 0.4444 | -0.214
x1 = 0.516 | -0.207
x1 = 0.6153 | -0.186
x1 = 0.6807 | -0.168
x1 = 0.7618 | -0.137
x1 = 0.81 | -0.117
x1 = 0.8648 | -0.0917
x1 = 0.9275 | -0.0526

Source: the NIST ThermoML archive (doi:10.1021/je034007i)
